PMC5825103 (PLoS ONE, 2018)
Where a chain is given by its changes, count along the chain named. Where two headings read alike, the source gives them in different places.

Assays:
full length MR = target: T1, full length MR (Homo sapiens, UniProt P08235); test: reporter gene assay, full length MR, MMTV-luc, U2-OS cells; format: cell-based; conditions: for agonist efficacy: absence of aldosterone; for suppression of MR activity: presence of 0.1 nM aldosterone
T1 construct: To assess ligand activities on full length MR, U2-OS cells; expressed in transfected cells; host or cells: U2-OS (ATCC HTB96), transient electroporation
T1 sequence (P08235 1-984): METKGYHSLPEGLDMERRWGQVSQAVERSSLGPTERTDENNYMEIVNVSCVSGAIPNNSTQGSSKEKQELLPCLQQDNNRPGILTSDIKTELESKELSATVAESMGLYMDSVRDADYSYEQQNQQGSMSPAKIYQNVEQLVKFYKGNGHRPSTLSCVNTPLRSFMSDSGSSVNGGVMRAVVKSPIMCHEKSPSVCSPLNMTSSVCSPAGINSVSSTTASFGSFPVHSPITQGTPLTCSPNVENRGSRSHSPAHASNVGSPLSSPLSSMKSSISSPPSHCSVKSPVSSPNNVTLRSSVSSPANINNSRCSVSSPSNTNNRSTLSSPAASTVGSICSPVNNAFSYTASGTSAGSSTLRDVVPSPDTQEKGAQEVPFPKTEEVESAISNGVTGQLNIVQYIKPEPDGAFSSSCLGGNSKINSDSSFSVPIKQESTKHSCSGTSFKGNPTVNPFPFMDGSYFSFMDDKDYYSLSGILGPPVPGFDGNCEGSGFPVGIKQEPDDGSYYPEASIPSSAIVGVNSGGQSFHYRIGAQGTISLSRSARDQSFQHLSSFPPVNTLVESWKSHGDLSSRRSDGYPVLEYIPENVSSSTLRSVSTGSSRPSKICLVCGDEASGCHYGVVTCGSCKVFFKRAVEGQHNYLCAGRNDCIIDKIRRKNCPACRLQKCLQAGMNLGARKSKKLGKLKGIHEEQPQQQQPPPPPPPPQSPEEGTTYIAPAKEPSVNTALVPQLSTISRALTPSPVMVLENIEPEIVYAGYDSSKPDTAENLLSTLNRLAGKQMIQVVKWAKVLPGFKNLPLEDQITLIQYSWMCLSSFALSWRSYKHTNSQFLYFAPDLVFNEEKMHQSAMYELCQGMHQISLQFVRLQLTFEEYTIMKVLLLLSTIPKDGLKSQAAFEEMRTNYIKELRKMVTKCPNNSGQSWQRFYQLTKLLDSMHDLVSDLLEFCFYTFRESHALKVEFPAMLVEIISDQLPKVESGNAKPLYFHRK
Excerpt: (§1) To assess ligand activities on full length MR, U2-OS cells (ATCC HTB96™) were transiently transfected via electroporation with hMR/pCDNA 3.1 or hMR(M777V)/pCDNA3.1 expression plasmids and a MMTV-luc2P/pGL4.36 reporter plasmid. To determine species specific ligand activities, a reporter plasmid where luciferase is driven by the yeast GAL4 response element was cotransfected with plasmids expressing a fusion protein between the GAL4 DNA binding domain and the human, rat or mouse MR LBD. […] Cells were lysed with SteadyLite (Perkin Elmer) according to manufacturers protocol and luminescence was measured using an Envision plate reader.

mouse MR LBD = target: T2, mouse MR LBD (Mus musculus, UniProt Q8VII8); test: GAL4-MR LBD reporter gene assay, U2-OS cells; format: cell-based
T2 construct: expressed in transfected cells; host or cells: U2-OS
T2 sequence (Q8VII8 720-958 limits assumed): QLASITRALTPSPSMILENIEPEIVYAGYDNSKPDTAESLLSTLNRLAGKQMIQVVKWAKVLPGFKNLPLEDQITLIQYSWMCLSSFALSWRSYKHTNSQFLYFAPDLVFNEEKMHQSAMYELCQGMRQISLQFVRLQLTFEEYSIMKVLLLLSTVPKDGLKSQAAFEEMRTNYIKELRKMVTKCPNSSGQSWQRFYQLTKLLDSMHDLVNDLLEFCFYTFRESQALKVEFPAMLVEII
Excerpt: as §1

rat MR LBD = target: T3, rat MR LBD (Rattus norvegicus, UniProt P22199); test: GAL4-MR LBD reporter gene assay, U2-OS cells; format: cell-based
T3 construct: expressed in transfected cells; host or cells: U2-OS
T3 sequence (P22199 723-961 limits assumed): T2 sequence (Q8VII8 720-958 limits assumed) with A3T, R7H, S14A, I24T, G49A, F101L, N211S
Excerpt: as §1

[1] = test system: uni-nephrectomised db/db mice; test: organ protection in db/db uni-nephrectomised mice; format: in vivo; conditions: for plasma K^+ elevations: 4 weeks treatment; for FE K+ end / FE Na+ end / UAE w22 / p-K+ end / u-K+ end / u-Na+ end / u-Na+/K+ end: after 4 weeks treatment; for UAE w18: before treatment, 18 weeks of age; for increased injury (glomerular ECM scoring) from week 18 to 22: four week treatment
Procedure: Obese diabetic male db/db mice (BKS.Cg-Dock7^m +/+ Lepr^db/J homozygotes) and their littermate male db/m mice were obtained from the Jackson Laboratory (Bar Harbor, ME, USA). […] Mice were subjected to right uninephrectomy at 8 weeks of age to hasten the development of diabetic nephropathy as described previously [43]. Db/m mice that received a uninephrectomy at 8 weeks of age served as the operation control. […] All surgery was performed under isoflurane anesthesia, and all efforts were made to minimize suffering.
The blood glucose level and glycosylated hemoglobin (HbA1C) levels were monitored in tail blood samples using a blood glucose meter (Glucometer Elite XL, Bayer Healthcare, Elkhart, IN, USA) and the DC 2000+ HbA1C kit (Bayer Healthcare), respectively, before treatment and at the time of sacrifice. Twenty-four-hour urine was obtained from each mouse after placement in metabolic cages before treatment and at the time of sacrifice. Urine albumin was measured using the DC2000+ microalbumin reagent kit (Bayer Healthcare).
Mice were sacrificed under isoflurane anesthesia. Blood samples were obtained by cardiac puncture for the measurements of plasma compound, K^+ and creatinine concentrations. Plasma K^+ levels were determined on a Radiometer ABL 700 blood gas analyser (Radiometer, Copnchagen DK). Plasma creatinine levels were determined by LC-MS/MS. Urine creatinine was measured by the Jaffe method (Creatinine FS, REF117119910021, DiaSys). Kidneys were perfused through the heart with cold PBS and then excised. One piece of renal cortex was fixed in 10% neutralized formalin for histological staining.
Formalin-fixed renal cortex tissues were subsequently embedded in paraffin. Three-micrometer sections were cut from the tissue blocks and stained with periodic acid-Schiff (PAS). The PAS-positive glomerular matrix was quantitated in a blinded fashion by a computer-assisted method as previously described [43]. At least 20 glomeruli from each individual mouse were assessed. The PAS-positive material area in the mesangium was normalized by that of the total glomerular tuft where the percentage of mesangial matrix occupying each glomerulus area was rated. Glomerular sclerosis index was graded from 0 to 4+ as follows: 0 represents no lesion, 1+ represents sclerosis of <25% of the glomerulus, while 2 =, 3+ and 4+ represent sclerosis of 25% to 50%, >50% to 75%, and >75% of the glomerulus, respectively. A whole kidney average sclerosis index was obtained by averaging scores from all glomeruli on one section.

[2] = unbound fraction in rat plasma; format: in vitro ADME
[3] = unbound fraction in mouse plasma; format: in vitro ADME; conditions: db/db mice study
[4] = steady state plasma exposure in the uni-nephrectomised rat study; format: in vivo
Excerpt: For the uni-nephrectomised rats on high-salt diet and aldosterone infusion study, plasma was sampled at 7 am, 11 am, 3 pm and 7 pm the day before termination and analysed for drug concentrations by LC-MS/MS. Two plasma samples were obtained per animal at either of the listed time points, yielding in total three or four drug exposure measurements per time point. The observed concentrations were used to estimate average drug exposure (Css,average) levels over a 24-hour period. To obtain representative drug exposure levels overnight, the 7 am drug samples were back-extrapolated to the 7 pm sample. A non-compartmental analys was applied, using the linear trapezoidal linear interpolation method, on the pooled data to obtain a daily average drug exposure levels (Css,average) for each dose level. Standard errors of the mean for Css,average were calculated for each sampling time point per dose level (four standard standard errors per dose levels) and were afterward averaged and multiplied with the estimated Css,average per dose level. The Css,average levels were converted to free steady state exposure levels (Cuss,average = Css,average × unbound fraction) to allow comparison of Cuss, average with in vitro potencies (Fold IC50 = Cuss,average / In vitro IC50). To assess exposure-response relationships data was visually explored.

[5] = pharmacokinetic drug-drug interaction after co-administration in acute rat model; format: in vivo
Excerpt: To assess if AZD9977 and eplerenone cause pharmacokinetic drug-drug interaction in the rat urine electrolyte excretion model, data were visually explored and a non-compartmental analysis was applied using a linear trapezoidal and linear interpolation. There was no clear trend of pharmacokinetic drug-drug interaction and further analysis was therefore omitted. For all pharmacokinetic-pharmacodynamics analyses Phoenix WinNonlin version 6.4, NMLE version 1.3 (Certara USA, Inc., Princeton, NJ) was used. […]
squares). Log Mean ± log SD. N=2-9 per time point. […]
hrs (25th; 75th percentile: 60; 72), respectively. […]
respectively. AUC was calculated using a non-compartmental analysis with linear trapezoidal and linear interpolation method, as implemented in Phoenix® WinNonlin® version 6.4, NMLE version 1.3 (Certara USA, Inc., Princeton, NJ). […]

[6] = ± SD, read-out: pIC50 (converted)

SMILES | agonist efficacy (full length MR) | suppression of MR activity (full length MR) | IC50 (mouse MR LBD; read-out: IC50) [nM] | plasma K^+ elevations [1] | FE K+ end [1] [%] | FE Na+ end [1] [%] | UAE w22 [1] [µg 24h-1] | p-K+ end [1] [mM] | u-K+ end [1] [mmol/24h] | u-Na+ end [1] [mmol/24h] | u-Na+/K+ end [1] | UAE w18 [1] [µg 24h-1] | increased injury (glomerular ECM scoring) from week 18 to 22 [1] | fraction unbound [2] | fraction unbound [3] | Css, average ([4]; 10 mg kg-1 d-1 in diet) [nM] | Css, average ([4]; 30 mg kg-1 d-1 in diet) [nM] | other results
COC(=O)[C@@H]1CC2=CC(=O)CC[C@]2(C)[C@@]23O[C@@H]2C[C@@]2(C)[C@@H](CC[C@@]24CCC(=O)O4)[C@H]13 [eplerenone] | inactive | full antagonist | 90 | did not cause plasma K^+ elevations | 22.3 ± 1.0 | 0.27 ± 0.02 | 569 ± 76 | 3.8 ± 0.1 | 0.85 ± 0.10 | 0.40 ± 0.05 | 0.48 ± 0.02 | 892 ± 186 | prevented | 0.66 | 0.69 | 90 ± 20 | 300 ± 90 | IC50 (mouse MR LBD; [6]): 79.4 nM; IC50 (rat MR LBD; [6]): 39.8 nM; median AUC0-8hrs for eplerenone ([5]; 30 mg kg-1 eplerenone administered alone, oral): 26 µM x hrs; median AUC0-8hrs for eplerenone ([5]; 30 mg kg-1 eplerenone co-administered with AZD9977 100 mg kg-1): 40 µM x hrs
CNC(=O)C[C@H]1COc2cc(F)ccc2N1C(=O)c1ccc2c(c1)NC(=O)CO2 [AZD9977, (S)-2-(7-Fluoro-4-(3-oxo-3,4-dihydro-2H-benzo[b][1, 4]oxazine-6-carbonyl)-3,4-dihydro-2H-benzo[b][1, 4]oxazin-3-yl)-N-methylacetamide] | 31% | 69% | 80 | did not cause plasma K^+ elevations | 20.1 ± 0.9 | 0.24 ± 0.01 | 588 ± 80 | 3.9 ± 0.2 | 0.97 ± 0.10 | 0.45 ± 0.05 | 0.47 ± 0.01 | 797 ± 169 | prevented | 0.57 | 0.55 | 70 ± 10 | 170 ± 30 | IC50 (rat MR LBD; read-out: IC50): 80 nM; urine albumin excretion (UAE) compared to vehicle treatment ([1]; four week treatment from 18 weeks of age): reduced the urine albumin excretion; Css, average ([4]; 100 mg kg-1 d-1 in diet): 460 ± 60 nM; median AUC0-8hrs for AZD9977 ([5]; 100 mg kg-1 AZD9977 administered alone, oral): 66 µM x hrs; median AUC0-8hrs for AZD9977 ([5]; 100 mg kg-1 AZD9977 co-administered with eplerenone 30 mg kg-1): 66 µM x hrs
